In patent publication US8722849B2, “Polypeptides” (Novo Nordisk A/S, priority 2011, dated 2014) one finds EC50 and solubility data, which are given here for 1 molecule.

Converted amounts (≈) assume the structure as drawn. Read-outs that look alike come from different tables or passages of the source. Starred links: 1 amine or outer side, 2 acyl side, 3 side chain; linkers in the order of their positions; H or OH if unused. Positions of bridges follow the written chain, without caps; N, C: chain ends. Non-standard residues stand in square brackets, D forms with d. Residues, ends and D or L forms follow the SMILES beside them. *: point of attachment. C18 diacid = O=C(O)CCCCCCCCCCCCCCCCC(=O)*; γGlu = O=C(O)[C@H](CCC(=O)[*:2])N[*:1]; Orn = NCCC[C@H](N)C(=O)O; AEEA = NCCOCCOCC(=O)O

Data set [1] concerns the target T1, rat calcitonin (a) receptor (Rattus norvegicus, UniProt P32214).
T1 construct: expressed in transfected cells; host or cells: BHK tk'ts 13
T1 sequence (P32214 25-479 isoform P32214-2 limits assumed): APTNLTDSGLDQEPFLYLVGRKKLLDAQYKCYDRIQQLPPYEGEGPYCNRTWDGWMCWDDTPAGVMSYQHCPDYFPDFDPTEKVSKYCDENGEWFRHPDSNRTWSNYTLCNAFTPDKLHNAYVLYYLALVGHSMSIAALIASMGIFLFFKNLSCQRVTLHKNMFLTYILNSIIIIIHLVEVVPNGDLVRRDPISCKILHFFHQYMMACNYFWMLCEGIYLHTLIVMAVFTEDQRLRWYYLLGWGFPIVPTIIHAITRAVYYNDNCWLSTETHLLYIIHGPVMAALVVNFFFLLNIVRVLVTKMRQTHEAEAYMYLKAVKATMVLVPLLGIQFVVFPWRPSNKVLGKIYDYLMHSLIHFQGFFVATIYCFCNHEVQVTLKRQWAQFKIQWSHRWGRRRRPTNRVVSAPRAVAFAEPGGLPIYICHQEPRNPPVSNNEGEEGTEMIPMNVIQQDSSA
Briefly: Assay (II)b functional cAMP FlashPlate assay, rat calcitonin receptor. It counts as cell-based. The settings on record: Table 11; read-out: CTa receptor rat EC50. The method, boiled down: (§1)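 BHK tk'ts 13 cells transiently transfected with rat calcitonin(a) receptor, alone or with rat RAMP3 (amylin 3(a)), were stimulated 24 hours later with sample for 30 min in buffer containing IBMX. cAMP measured by competitive radioactive FlashPlate assay, scintillation read after 3 h detection incubation.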

Data set [2] addresses T2, rat amylin 3(a) receptor (rat calcitonin(a) receptor + rat RAMP3) (Rattus norvegicus, UniProt P32214+Q9JJ73).
T2 construct: expressed in transfected cells; host or cells: BHK tk'ts 13
T2 sequence (P32214 25-479 isoform P32214-2 limits assumed): T1 sequence (P32214 25-479 isoform P32214-2 limits assumed)
T2 sequence (Q9JJ73 23-147 partner): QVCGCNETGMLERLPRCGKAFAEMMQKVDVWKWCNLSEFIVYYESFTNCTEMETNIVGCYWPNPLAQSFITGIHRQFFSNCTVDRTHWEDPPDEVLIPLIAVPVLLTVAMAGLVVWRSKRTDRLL
In words: Assay (II)b functional cAMP FlashPlate assay, rat amylin receptor. The data set is classed as cell-based. As to conditions: Table 11. In a few lines: as §1

In data set [3] the target is T3, human amylin receptor (amylin 3(a) receptor: human calcitonin receptor + RAMP-3) (Homo sapiens, UniProt O60896+P30988).
T3 construct: expressed in transfected cells; host or cells: BHK570
T3 sequence (P30988 25-474): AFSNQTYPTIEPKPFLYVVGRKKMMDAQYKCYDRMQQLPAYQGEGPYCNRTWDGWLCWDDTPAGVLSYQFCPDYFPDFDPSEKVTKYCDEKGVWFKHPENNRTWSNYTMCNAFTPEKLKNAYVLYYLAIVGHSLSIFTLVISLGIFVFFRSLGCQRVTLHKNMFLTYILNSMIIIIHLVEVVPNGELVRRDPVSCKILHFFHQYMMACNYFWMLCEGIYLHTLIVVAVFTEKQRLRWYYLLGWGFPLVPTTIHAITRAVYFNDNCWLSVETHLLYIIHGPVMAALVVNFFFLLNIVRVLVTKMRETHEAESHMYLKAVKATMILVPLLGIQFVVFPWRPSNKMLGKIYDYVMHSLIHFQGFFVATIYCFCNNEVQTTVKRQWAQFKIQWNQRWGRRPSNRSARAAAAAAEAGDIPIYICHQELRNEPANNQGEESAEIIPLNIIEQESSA
T3 sequence (O60896 24-148 partner): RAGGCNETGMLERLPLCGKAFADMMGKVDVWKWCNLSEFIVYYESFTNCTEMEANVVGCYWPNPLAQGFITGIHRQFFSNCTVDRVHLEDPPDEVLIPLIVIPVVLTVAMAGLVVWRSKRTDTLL
Briefly: Assay (II)a functional CRE-luciferase assay, human amylin receptor. It counts as cell-based. As to conditions: Table 2; BHK amylin 3(a)-receptor/CRE-luc cells.

Data set [4] has as its target T4, human calcitonin receptor (Homo sapiens, UniProt P30988).
T4 construct: expressed in transfected cells; host or cells: BHK570
T4 sequence (P30988 25-474): T3 sequence (P30988 25-474)
In words: Assay (II)a functional CRE-luciferase assay, human calcitonin receptor. It counts as cell-based. As to conditions: Table 7; human calcitonin (CTa) receptor.

A short description of data set [5]: Assay (IV) determination of solubility. It counts as physicochemical. The method, boiled down:
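Polypeptide in water (~500 nmol/ml stock) was mixed 1:1 with 100 mM buffers from pH 3.0 to 8.0 (glycylglycine pH 3.0–5.0; bistrispropane pH 6.0–8.0). After 18 hours at room temperature, samples were centrifuged and the polypeptide remaining in solution was quantified by HPLC.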

Take `CC[C@H](C)[C@H](NC(=O)[C@@H]1CCCN1C(=O)CNC(=O)[C@H](Cc1ccccc1)NC(=O)[C@H](CC(N)=O)NC(=O)[C@H](CC(N)=O)NC(=O)[C@H](CO)NC(=O)[C@H](CO)NC(=O)[C@H](CCCNC(=N)N)NC(=O)[C@H](Cc1c[nH]cn1)NC(=O)[C@H](CC(C)C)NC(=O)[C@H](Cc1ccccc1)NC(=O)[C@H](CCC(=O)O)NC(=O)[C@H](C)NC(=O)[C@H](CC(C)C)NC(=O)[C@H](CCCNC(=N)N)NC(=O)[C@H](CCC(N)=O)NC(=O)[C@@H](NC(=O)[C@H](C)NC(=O)[C@@H]1CSSC[C@H](NC(=O)[C@H](CCCN)NC(=O)[C@@H](CCCNC(=N)N)NC(=O)[C@@H](CCCNC(=N)N)NC(=O)COCCOCCNC(=O)COCCOCCNC(=O)CC[C@H](NC(=O)CCCCCCCCCCCCCCCCC(=O)O)C(=O)O)C(=O)N[C@@H](CC(N)=O)C(=O)N[C@@H]([C@@H](C)O)C(=O)N[C@@H](C)C(=O)N[C@@H]([C@@H](C)O)C(=O)N1)[C@@H](C)O)C(=O)N[C@@H](CC(C)C)C(=O)N1CCC[C@H]1C(=O)N1CCC[C@H]1C(=O)N[C@H](C(=O)N[C@@H](CC(N)=O)C(=O)N[C@H](C(=O)NCC(=O)N[C@@H](CO)C(=O)N[C@@H](CC(N)=O)C(=O)N[C@H](C(=O)N[C@@H](Cc1ccc(O)cc1)C(N)=O)[C@@H](C)O)C(C)C)[C@@H](C)O` [Example 120, N-alpha-[2-(2-{2-[2-(2-{2-[(S)-4-Carboxy-4-(17-carboxyheptadecanoylamino)butyrylamino]ethoxy}ethoxy)acetylamino]ethoxy}ethoxy)acetyl]-D-Arg-D-Arg-[Orn1,Glu14,His17,Arg18]-pramlintide] ({C18 diacid-γGlu-AEEA-AEEA}-[dR][dR][Orn]CNTATCATQRLAEFLHRSSNNFGPILPPTNVGSNTY-NH2; disulfide 4-9 (inferred); C-terminus assumed): the EC50 came to 2.57 nM in data set [1], 0.033 nM in data set [2], 0.0295 nM in data set [3] and 0.691 nM in data set [4]. Besides, the solubility at 18 h in data set [5] (bistrispropane buffer, pH 6, pH 6.0, read-out: Solubility pH 6.0) is greater than 200 µM; in data set [5] (bistrispropane buffer, pH 6.5, pH 6.5, read-out: Solubility pH 6.5) it was greater than 200 µM; in data set [5] (bistrispropane buffer, pH 7, pH 7.0, 18 hours at room temperature, Table 3, read-out: Solubility pH 7.0) it was greater than 200 µM; in data set [5] (bistrispropane buffer, pH 7, pH 7.0, read-out: Solubility pH 7.0), greater than 200 µM; in data set [5] (bistrispropane buffer, pH 7.5, pH 7.5, read-out: Solubility pH 7.5), greater than 200 µM; in data set [5] (bistrispropane buffer, pH 8, pH 8.0, read-out: Solubility pH 8.0), 197 µM (≈ 992 µg/mL). For the same molecule, the solubility at 18 h was greater than 200 µM in data set [5] (glycylglycine buffer, pH 3, pH 3.0, read-out: Solubility pH 3.0); greater than 200 µM in data set [5] (glycylglycine buffer, pH 4, pH 4.0, 18 hours at room temperature, Table 2, read-out: Solubility pH 4.0); greater than 200 µM in data set [5] (glycylglycine buffer, pH 4, pH 4.0, read-out: Solubility pH 4.0); greater than 200 µM in data set [5] (glycylglycine buffer, pH 5, pH 5.0, read-out: Solubility pH 5.0).

As a reminder, the EC50 is the midpoint of the concentration-response curve. The term solubility denotes the dissolved amount per volume that the medium holds.
